Laboratory results published in patent publication US20240059728A1, “NOVEL GALACTOSIDE INHIBITOR OF GALECTINS” (GALECTO BIOTECH AB, priority 2021, published 2024).

Columns and labels:
Galectin-1 = Galectin-1 (Homo sapiens (Human), UniProt P09382); assay: fluorescence anisotropy assay, galectin-1; format: binding; conditions: inhibition of the interaction between galectin and a fluorescein tagged saccharide probe
Experimental: (§1) The affinity of Example 1-14 for galectins were determined by a fluorescence anisotropy assay where the compound was used as an inhibitor of the interaction between galectin and a fluorescein tagged saccharide probe as described Sörme, P., Kahl-Knutsson, B., Huflejt, M., Nilsson, U. J., and Leffler H. (2004) Fluorescence polarization as an analytical tool to evaluate galectin-ligand interactions. Anal. Biochem. 334: 36-47, (Sarme et al., 2004) and Monovalent interactions of Galectin-1 By Salomonsson, Emma; Larumbe, Amaia; Tejler, Johan; Tullberg, Erik; Rydberg, Hanna; Sundin, Anders; Khabut, Areej; Frejd, Torbjorn; Lobsanov, Yuri D.; Rini, James M.; et al, From Biochemistry (2010), 49(44), 9518-9532, (Salomonsson et al., 2010).

Galectin-3 = Galectin-3 (Homo sapiens (Human), UniProt P17931); assay: fluorescence anisotropy assay, galectin-3; format: binding; conditions: inhibition of the interaction between galectin and a fluorescein tagged saccharide probe
Experimental: as §1

Chain of Galectin-3 (P17931 whole entry): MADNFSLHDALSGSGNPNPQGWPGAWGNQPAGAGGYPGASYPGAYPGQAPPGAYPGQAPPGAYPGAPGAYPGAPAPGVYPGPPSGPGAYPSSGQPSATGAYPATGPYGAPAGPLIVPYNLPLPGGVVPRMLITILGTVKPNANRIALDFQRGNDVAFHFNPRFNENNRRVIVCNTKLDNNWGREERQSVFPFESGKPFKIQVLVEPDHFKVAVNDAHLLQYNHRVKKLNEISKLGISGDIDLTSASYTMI
Chain of Galectin-1 (P09382 whole entry): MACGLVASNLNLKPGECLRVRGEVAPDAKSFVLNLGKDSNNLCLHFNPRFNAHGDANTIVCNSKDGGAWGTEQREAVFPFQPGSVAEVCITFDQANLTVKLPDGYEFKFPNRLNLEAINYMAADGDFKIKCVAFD

SMILES | Kd (Galectin-1) [nM] | Kd (Galectin-3) [nM]
OCC1O[C@@H](S[C@@H]2O[C@H](CO)C(O)C(n3cc(-c4csc(O)n4)nn3)[C@H]2O)C(O)[C@@H](n2cc(-c3cc(F)c(F)c(F)c3)nn2)[C@H]1O (stereo partly drawn) [Example 1, 3,3′-Dideoxy-3-[4-(3,4,5-trifluorophenyl)-1H-1,2,3-triazol-1-yl]-3′-[4-(2-hydroxythiazol-4-yl)-1H-1,2,3-triazol-1-yl]-1,1′-sulfanediyl-di-β-D-galactopyranoside] | 3 | 0.4
OCC1O[C@@H](S[C@@H]2O[C@H](CO)C(O)C(n3cc(-c4csc(O)n4)nn3)[C@H]2O)C(O)[C@@H](n2cc(-c3cc(F)c(Cl)c(F)c3)nn2)[C@H]1O (stereo partly drawn) [Example 2, 3-[4-(4-Chloro-3,5-difluorophenyl)-1H-1,2,3-triazol-1-yl]-3,3′-dideoxy-3′-[4-(2-hydroxythiazol-4-yl)-1H-1,2,3-triazol-1-yl]-1,1′-sulfanediyl-di-β-D-galactopyranoside] | 4 | 0.3
Nc1nc(-c2cn(C3C(O)[C@@H](CO)O[C@@H](S[C@@H]4OC(CO)[C@H](O)[C@H](n5cc(-c6cc(F)c(Cl)c(F)c6)nn5)C4O)[C@@H]3O)nn2)cs1 (stereo partly drawn) [Example 3, 3′-[4-(2-Aminothiazol-4-yl)-1H-1,2,3-triazol-1-yl]-3-[4-(4-chloro-3,5-difluorophenyl)-1H-1,2,3-triazol-1-yl]-3,3′-dideoxy-1,1′-sulfanediyl-di-β-D-galactopyranoside] | 9 | 1
OCC1O[C@@H](S[C@@H]2O[C@H](CO)C(O)C(n3cc(-c4ccc(Cl)c(F)c4F)nn3)[C@H]2O)C(O)[C@@H](n2cc(-c3ccc(Cl)c(F)c3F)nn2)[C@H]1O (stereo partly drawn) [Example 14, 1,1′-Sulfanediyl-bis-{3-[4-(4-chloro-2,3-difluorophenyl)-1H-1,2,3-triazol-1-yl]-3-deoxy-β-D-galactopyranoside}] | 450 | 12
